Laboratory results from patent publication US20120178124A1, “STEROL SIDE CHAIN-CLEAVING ENZYME PROTEIN AND USE THEREOF” (MITSUBISHI CHEMICAL CORPORATION, priority 2009, published 2012).
“Also recorded” adds a separate entry of the source. Like-named read-outs stand apart in the source and are kept apart here.

T1: Sphingomonas subterranea NBRC16086 P450scc CYPSS204A (CYPSS), wild type, SEQ ID NO: 2 (Novosphingobium subterraneum, UniProt A0A0B8ZS99)
T1 sequence (A0A0B8ZS99 1-472): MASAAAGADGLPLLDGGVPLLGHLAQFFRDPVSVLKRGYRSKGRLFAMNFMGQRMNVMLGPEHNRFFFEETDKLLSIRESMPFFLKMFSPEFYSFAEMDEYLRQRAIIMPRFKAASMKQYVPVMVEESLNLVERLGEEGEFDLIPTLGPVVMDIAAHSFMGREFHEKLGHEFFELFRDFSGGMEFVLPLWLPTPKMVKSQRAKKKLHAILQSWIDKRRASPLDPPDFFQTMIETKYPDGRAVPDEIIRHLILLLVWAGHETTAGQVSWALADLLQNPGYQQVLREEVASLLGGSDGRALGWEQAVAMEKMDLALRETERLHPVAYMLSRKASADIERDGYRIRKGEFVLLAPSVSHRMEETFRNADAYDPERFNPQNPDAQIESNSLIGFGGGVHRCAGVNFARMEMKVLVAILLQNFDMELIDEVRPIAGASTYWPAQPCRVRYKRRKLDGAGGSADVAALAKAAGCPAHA

B1: Sphingomonas subterranea NBRC16086 P450scc CYPSS204A (CYPSS), wild type, SEQ ID NO: 2 (Novosphingobium subterraneum) (protein)
chain: T1 sequence (A0A0B8ZS99 1-472)

Key:
[1] = molecular target: T1, Sphingomonas subterranea NBRC16086 P450scc CYPSS204A (CYPSS), wild type, SEQ ID NO: 2; assay: Kinetics analysis of CYPSS with 4-cholesten-3-one (conversion to progesterone, cell-free extract)
CYPSS204A = assay: Conversion reaction of substrates by Escherichia coli expression strain BP215; assay type: cell-based, Sphingomonas subterranea NBRC 16086; settings: strain BP215, 28° C., 5 hours
Description: The temperature conditions applied during the PCR were 95° C./5 min, 30 cycles of (98° C./30 sec, 60° C./30 sec, and 68° C./2 min), and 68° C./10 min.
Analysis conditions: Using Chromolith speed rod RP18e (50×4.6 mm) column, 50%→100% CH3CN gradient (0 to 3 min) and 100% CH3CN (3 to 8 min) were used as a mobile phase, and detection was carried out at a flow rate of 2 ml/min using CAD™ (Charged Aerosol Detection) and MS.

CYP204A1 [2] = assay: Conversion of 4-cholesten-3-one to progesterone by Bacillus megaterium cell mass expressing the CYP204A1 gene; settings: Bacillus megaterium pXYL204CB cell suspension, 30° C., 24 hours
CYP204A1 [3] = settings: strain BP172, same reaction as Example 6 (28° C., 5 hours)
Description: Novosphingobium aromaticivorans (ATCC 700278) was inoculated into an L medium, and it was then cultured at 30° C. for 2 days. Thereafter, genomic DNA was extracted from the cell mass obtained in the same manner as that of Example 1. A fragment comprising a CYPSS204A1 gene and a ferredoxin gene located downstream thereof was amplified from the above-described genomic DNA by using a primer CYP-5F (SEQ ID NO: 9) and a primer CYP-6R (SEQ ID NO: 10) and also using La Taq polymerase (manufactured by Takara Bio INC.). The temperature conditions applied during this operation were 94° C./3 min, 30 cycles of (98° C./20 sec, 63° C./30 sec, and 68° C./2 min), and 72° C./5 min.
Escherichia coli BL21(DE3) was transformed with this plasmid, and the obtained cell strain was named as BP172.
The Escherichia coli expression strain BP215 was inoculated into 2 ml of an M9 mix medium (Na2HPO4: 0.68%, KH2PO4: 0.3%, NaCl: 0.05%, NH4C;: 0.01%, Casamino acid: 1%, D-Glucose: 0.4%, CaCl2: 0.1 mM, MgCl2: 1 mM, Thiamine: 0.002%, FeSO4: 0.1 mM, Carbenicillin: 0.005%), and it was then subjected to shaking culture at 30° C. for 17 hours, so as to obtain pre-culture solution. 0.25 ml of this pre-culture solution was inoculated into 25 ml of the main culture medium (Na2HPO4: 0.68%, KH2PO4: 0.3%, NaCl: 0.05%, NH4Cl: 0.01%, Casamino acid: 1%, CaCl2: 0.1 mM, MgCl2: 1 mM, Thiamine: 0.002%, FeSO4: 0.1 mM, Carbenicillin: 0.005%, Overnight Express™ solution: 7%, 5-Aminolevlic acid: 0.008%) using Overnight Express™ Autoinduction System (Novagen Cat. No. 71300-4), and it was then subjected to shaking culture at 25° C. for 24 hours. 5 ml of the obtained main culture solution was centrifuged (3500 rpm, 10 minutes) to obtain cell mass, and 1 ml of CV2 buffer (50 mM (pH) potassium phosphate buffer containing glycerol: 2%, carbenicillin: 0.005%, and isopropyl β-D-1-thiogalactopyranoside: 0.1 mM) was added to the obtained cell mass. Thereafter, 0.01 ml of the methanol solution of 1% 4-cholesten-3-one and 0.02 ml of an aqueous solution of 25% methyl-β-cyclodextrin were added to the mixed solution, and the obtained mixture was then shaken at 28° C. for 5 hours for the reaction. After completion of the reaction, 4 ml of methanol was added to the reaction solution, and they were then fully mixed. The obtained mixture was centrifuged, and the upper layer was then analyzed by HPLC.
As substrates, 4-cholesten-3-one, cholesterol, 7-dehydrocholesterol, ergosterol, 13-sitosterol, stigmasterol, campesterol, desmosterol, (20S)-20-hydroxycholest-4-en-3-one, (22R)-22-hydroxycholest-4-en-3-one, (20R,22R)-20,22-dihydroxycholest-4-en-3-one, and (20R,22S)-20,22-dihydroxycholest-4-en-3-one were used. Each substrate was subjected to the same reaction as that of Example 6, separately, and the generated product was then analyzed by HPLC.

[4] = substrate: CC(C)CCC[C@@H](C)[C@H]1CC[C@H]2[C@@H]3CCC4=CC(=O)CC[C@]4(C)[C@H]3CC[C@]12C; assay: purified protein, by the assay type; settings: other: 4-cholesten-3-one 0.1 to 500 μM, pH 7.5, 15° C., 60 minutes, Lineweaver-Burk plot

Molecule	Vmax ([1]; 4-cholesten-3-one 0.1 to 500 μM, pH 7.5, 15° C., 60 minutes, Lineweaver-Burk plot)	substrate inhibition ([1]; 4-cholesten-3-one, in words)	Vmax, times higher than that of CYP204A1 ([1]; compared with CYP204A1)	Vmax, relative activity ([1]; relative to CYP204A1 (1.00))	decrease rate of the enzyme protein activity (substrate inhibition) ([1]; substrate concentration increased from 10 μM to 100 μM, pH 7.5, 15° C.)	accumulated amount of side-chain cleavage product (CYPSS204A)	added substrate remained (CYPSS204A)	Conversion rate (CYPSS204A; to progesterone, pregnenolone or 7-dehydropregnenolone)	conversion rate of 4-cholesten-3-one to progesterone (CYP204A1 [2])	Conversion rate (CYP204A1 [3])	Conversion rate (CYP204A1 [3]; listed as 4Chol)	Km [4]
CC(C)CCC[C@@H](C)[C@H]1CC[C@H]2[C@@H]3CCC4=CC(=O)CC[C@]4(C)[C@H]3CC[C@]12C [4-cholesten-3-one]	78.7 mmol/min/mol	hardly undergoes substrate inhibition; also recorded: substrate inhibition of CYPSS was lower than that of CYP204A1	approximately 1.7 times	1.66	10%	78.0 mg/L	not detected	78%	24.5%	84.0%	84%	
B1												1.1 µM
